Data reported in patent US7033789B1, “DNA molecules encoding L-glutamate-gated chloride channels from Schistocerca americana” (Merck & Co., Inc., priority 1999, dated 2006).

How the values were obtained:
[1] = system: SaGluCl1 (short form “SC”) glutamate-gated chloride channel; assay: Two microelectrode voltage clamp of Xenopus oocytes expressing SaGluCl1; type: cell-based, Schistocerca americana; settings: for current elicited on application of the compound: Xenopus oocyte, SaGluCl1 short form SC, membrane potential held at 0 mV (FIG. 3); for activation of the channel (chloride current): short form of SaGluCl1 in Xenopus laevis oocytes
Text: The measurement is made with the two microelectrode voltage clamp technique and the membrane potential was held at 0 mV. Two current recordings are superimposed. The bars at top show the duration of application of glutamate and ivermectin phosphate.
Full length cDNA clones corresponding to the selected RT-PCR sequences were used as template for synthesis of in vitro transcribed RNA (Ambion Inc.). The full-length cDNA encoding SaGluCl1 in a Bluescript plasmid is linearized and capped cRNA transcripts are synthesized using appropriate oligonucleotide primers and the mMESSAGE mMACHINE in vitro RNA transcription kit from Ambion. Xenopus laevis oocytes were prepared and injected using standard methods as described (Arena et al., 1991, Mol. Pharmacol. 40: 368–374; Arena et al, 1992, Mol. Brain Res. 15: 339–348). Adult female Xenopus laevis were anesthetized with 0.17% tricaine methanesulfonate and the ovaries were surgically removed and placed in a dish consisting of (mM): NaCl 82.5, KCl 2, MgCl2 1, CaCl2 1.8, HEPES 5, adjusted to pH 7.5 with NaOH(OR-2). Ovarian lobes were broken open, rinsed several times, and gently shaken in OR-2 containing 0.2% collagenase (Sigma, Type 1A) for 2–5 hours. When approximately 50% of the follicular layers were removed, Stage V and VI oocytes were selected and placed in media consisting of (mM): NaCl 86, KCl 2, MgCl2 1, CaCl2 1.8, HEPES 5, Na pyruvate 2.5, theophylline 0.5, gentamicin 0.1 adjusted to pH 7.5 with NaOH (ND-96) for 24–48 hours before injection. For most experiments, oocytes were injected with 10 ng of cRNA in 50 nl of RNase free water. Control oocytes were injected with 50 nl of water. Oocytes were incubated for 1–5 days in ND-96 supplemented with […] gentamycin, 2.5 mM Na pyruvate and 0.5 mM theophylline before recording. Incubations and collagenase digestion were carried out at 18° C.
Voltage-clamp studies were conducted with the two microelectrode voltage clamp technique using a Dagan CA1 amplifier (Dagan Instruments, Minneapolis, Minn.). The current passing microelectrodes were filled with 0.7 M KCl plus 1.7 M K3-citrate and the voltage recording microelectrodes were filled with 1.0 M KCl. The extracellular solution for most experiments was saline consisting of (mM): NaCl 96, BaCl2 3.5, MgCl2 0.5, CaCl2 0.1, HEPES 5, adjusted to pH 7.5 with NaOH. The extracellular chloride concentration was reduced in some experiments by equimolar replacement of NaCl with the sodium salt of the indicated anion. Experiments were conducted at 21–24° C. Data were acquired using the program Pulse and most analysis was performed with the companion program Pulsefit (Instrutech Instruments, Great Neck, N.Y.) or with Igor Pro (Wavemetrics, Lake Oswego, Oreg.). Data were filtered (fc, −3 db) at 1 kHz, unless otherwise indicated. […] The measurement was made as described in this Example with the two microelectrode voltage clamp technique and the membrane potential was held at 0 mV. Two current recordings are superimposed. The bars at top show the duration of application of glutamate and ivermectin phosphate.

[2] = system: SaGluCl1 (short form “SC”) expressed in CHO cells; assay: Current measurement in CHO cells expressing SaGluCl1; type: cell-based, Schistocerca americana
Protocol: FIG. 4A and FIG. 4B show the SaGluCl1 (short form “SC”) expressed in CHO cells assembles into a homomultimer and is activated by ivermectin (FIG. 4A) and nodulasporic acid (FIG. 4B). 100 nM ivermectin and 1 μM nodulasporic acid were added at 20 seconds and current was measured.
PTet-Splice subclones of SaGluCl1 and SaGluCl2 as disclosed in Example section 1 were transfected into CHO Tet-Off cells (Clontech labs, Inc.) using the Lipofectamine Plus reagent (Life Technologies Inc.). Stable cell lines are selected by growth in the presence of G418. Single G418 resistant clones are isolated and shown to contain the intact SaGluCl gene. Clones containing the SaGluCl cDNAs may be analyzed for expression using immunological techniques, such as immuneprecipitation, Western blot, and immunofluorescence using antibodies specific to the SaGluCl proteins. Antibody may obtained from rabbits innoculated with peptides that are synthesized from the amino acid sequence predicted from the SaGluCl sequences. Expression is also analyzed using patch clamp electrophysiological techniques, an anion flux assay, and ^3H-ivermectin and ^3H-glutamate binding assays.
The expression of recombinant SaGluCl1 and/or SaGluCl2 is achieved by transfection of the full-length SaGluCl cDNA into a mammalian host cell described herein.

| Compound | current elicited on application of the compound [1] | activation of the channel (chloride current) [1] | activation of homomultimer channel, current measured ([2]; 100 nM added at 20 seconds (FIG. 4A)) | activation of homomultimer channel, current measured ([2]; 1 μM added at 20 seconds (FIG. 4B)) |
| --- | --- | --- | --- | --- |
| N[C@@H](CCC(=O)O)C(=O)O [glutamate, L-glutamate] | elicited a rapidly desensitizing current | robust L-glutamate-gated chloride current | – | – |
| CC[C@H](C)[C@H]1O[C@]2(CC[C@@H]1C)C[C@@H]1C[C@@H](C/C=C(\C)[C@@H](O[C@H]3C[C@H](OC)[C@@H](O[C@H]4C[C@H](OC)[C@@H](O)[C@H](C)O4)[C@H](C)O3)[C@@H](C)/C=C/C=C3\CO[C@@H]4[C@H](O)C(C)=C[C@@H](C(=O)O1)[C@]34O)O2 [ivermectin, 22,23-dihydro-avermectin B1a] | – | activated | activated | – |
| ivermectin phosphate | elicited a current of similar amplitude, but the channel stayed open much longer | – | – | – |
| nodulasporic acid | – | activated | – | activated |
